Broadly, the IC50 is the concentration needed to halve the response being measured.

The experiment deals with human ADRA2C receptor (Homo sapiens (Human), UniProt P18825). As to the kind of experiment: In vitro activity assay to determine the inhibition of recombinant ADRA2C (CHO-K1 cells, aequorin bioluminescence). It counts as cell-based. As to conditions: inhibition of noradrenaline-induced bioluminescence signal; some mean values from multiple determinations; read-out: ARα2C IC50. The method in brief: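 IC50 is the concentration halving the agonist (noradrenaline)-evoked rise in aequorin luminescence, fitted by 4-parameter Hill function. Read in stable Gαq/aequorin CHO-K1 cells expressing recombinant human ADRA2C.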
Sequence of human ADRA2C receptor (P18825 whole entry): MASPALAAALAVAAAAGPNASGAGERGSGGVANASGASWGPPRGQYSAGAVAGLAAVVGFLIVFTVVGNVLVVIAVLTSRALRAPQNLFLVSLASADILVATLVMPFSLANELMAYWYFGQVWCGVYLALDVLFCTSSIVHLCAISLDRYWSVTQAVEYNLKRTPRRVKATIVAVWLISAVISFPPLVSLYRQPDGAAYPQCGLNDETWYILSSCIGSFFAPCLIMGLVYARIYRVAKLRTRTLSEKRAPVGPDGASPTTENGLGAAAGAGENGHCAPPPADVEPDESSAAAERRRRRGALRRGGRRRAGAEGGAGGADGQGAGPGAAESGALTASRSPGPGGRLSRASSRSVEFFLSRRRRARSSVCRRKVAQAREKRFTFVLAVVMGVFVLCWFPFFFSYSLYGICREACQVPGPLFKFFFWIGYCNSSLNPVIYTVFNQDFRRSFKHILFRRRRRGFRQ
Take `Cc1ccccc1CNC(=O)c1cnc(N2CCC(N3CCC[C@@H](C)C3)CC2)s1` [Example 37, N-(2-methylbenzyl)-2-[(3R)-3-methyl[1,4′-bipiperidin]-1′-yl]-1,3-thiazole-5-carboxamide]: the IC50 stood at 200 nM.
The value for `O=C(NCc1ncc(F)cc1F)c1cnc(N2CCC(N3CCC[C@H](C(F)F)C3)CC2)s1` [Example 38, 2-[(3S)-3-(Difluoromethyl)[1,4′-bipiperidin]-1′-yl]-N-[(3,5-difluoropyridin-2-yl)methyl]-1,3-thiazole-5-carboxamide] was 2340 nM; that for `O=C(NCc1ncc(F)cc1F)c1cnc(N2CCC(N3CCC[C@@H](C(F)F)C3)CC2)s1` [Example 39, 2-[(3R)-3-(Difluoromethyl)[1,4′-bipiperidin]-1′-yl]-N-[(3,5-difluoropyridin-2-yl)methyl]-1,3-thiazole-5-carboxamide] was 135 nM.
The value for `O=C(NCc1ncc(F)cc1F)c1cnc(N2CCC(N3CCC[C@@H](CF)C3)CC2)s1` [Example 41, N-[(3,5-Difluoropyridin-2-yl)methyl]-2-[(3R)-3-(fluoromethyl)[1,4′-bipiperidin]-1′-yl]-1,3-thiazole-5-carboxamide] was 243 nM; that for `O=C(NCc1ncc(F)cc1F)c1cnc(N2CCC(N3CCC[C@@H](C(F)(F)F)C3)CC2)s1` [Example 43, N-[(3,5-Difluoropyridin-2-yl)methyl]-2-[(3R)-3-(trifluoromethyl)[1,4′-bipiperidin]-1′-yl]-1,3-thiazole-5-carboxamide] was 26 nM.
For `O=C(NCc1ncc(F)cc1F)c1cnc(N2CCC(N3CCC[C@@H](OCC4CC(F)(F)C4)C3)CC2)s1` [Example 44, 2-{(3R)-3-[(3,3-Difluorocyclobutyl)methoxy][1,4′-bipiperidin]-1′-yl}-N-[(3,5-difluoropyridin-2-yl)methyl]-1,3-thiazole-5-carboxamide] the value was 41.2 nM; for `C[C@@H]1CCCN(C2CCN(c3noc(C(=O)NCc4ncc(F)cc4F)n3)CC2)C1` [Example 49, N-[(3,5-Difluoropyridin-2-yl)methyl]-3-[(3R)-3-methyl[1,4′-bipiperidin]-1′-yl]-1,2,4-oxadiazole-5-carboxamide], 56 nM; for `C[C@@H]1CCCN(C2CCN(c3ncc(C(=O)NCc4ncc(Cl)s4)s3)CC2)C1` [Example 56, N-[(5-Chloro-1,3-thiazol-2-yl)methyl]-2-[(3R)-3-methyl[1,4′-bipiperidin]-1′-yl]-1,3-thiazole-5-carboxamide], 240 nM.
With `C[C@@H]1CCCN(C2CCN(c3ncc(C(=O)NCc4ccc(F)s4)s3)CC2)C1` [Example 57, N-[(5-Fluoro-2-thienyl)methyl]-2-[(3R)-3-methyl[1,4′-bipiperidin]-1′-yl]-1,3-thiazole-5-carboxamide], the IC50 came out at 830 nM.
The value for `C[C@@H]1CCCN(C2CCN(c3ncc(C(=O)NCc4ccncc4)s3)CC2)C1` [Example 58, 2-[(3R)-3-Methyl[1,4′-bipiperidin]-1′-yl]-N-(pyridin-4-ylmethyl)-1,3-thiazole-5-carboxamide] was 870 nM; that for `CC1(C)CCCN(C2CCN(c3ncc(C(=O)NCc4ncc(F)cc4F)s3)CC2)C1` [Example 63, N-[(3,5-Difluoropyridin-2-yl)methyl]-2-(3,3-dimethyl[1,4′-bipiperidin]-1′-yl)-1,3-thiazole-5-carboxamide] was 570 nM; that for `O=C(NCc1ncc(F)cc1F)c1cnc(N2CCC(N3CCCC4(CC4)C3)CC2)s1` [Example 64, 2-[4-(5-Azaspiro[2.5]octan-5-yl)piperidin-1-yl]-N-[(3,5-difluoropyridin-2-yl)methyl]-1,3-thiazole-5-carboxamide] was 1.4 nM.
For `C[C@@H]1CCCN(C2CCCN(c3ncc(C(=O)NCc4ncc(F)cc4F)s3)CC2)C1` (stereo partly drawn) [Example 71, N-[(3,5-Difluoropyridin-2-yl)methyl]-2-{4-[(3R)-3-methylpiperidin-1-yl]azepan-1-yl}-1,3-thiazole-5-carboxamide] the value was 100 nM.

These data come from US20240000767A1, “COMBINATION OF AN ALPHA2-ADRENOCEPTOR SUBTYPE C (ALPHA-2C) ANTAGONIST WITH A TASK1/3 CHANNEL BLOCKER FOR THE TREATMENT OF SLEEP APNEA” (Bayer Aktiengesellschaft, priority 2020, published 2024).
